Values quoted from earlier work, collected in article PMC8050614 (Journal of bone and mineral research : the official journal …, 2019).

How the values were obtained:
young wild-type mice = details: 8 weeks of treatment
wild-type mice = details: injection at 50 nmol/kg

## NCCCC(O)(P(=O)(O)O)P(=O)(O)O [alendronate]
Young wild-type mice
  osteoclast size and/or number: increase
  serum CTX1: decrease

## hPTH(1–34)NH2
wild-type mice
  hypercalcemic response: frank hypercalcemic response
